Legend:
glioblastoma = settings: in vivo; cited from earlier work
mouse glioma cell lines [1] = test: Acute growth inhibition assay (MTT) in mouse glioma cell lines; assay type: cell-based; settings: concentrations up to 1 μM
mouse glioma cell lines [2] = test: Clonogenic survival (clonogenicity) assay in mouse glioma cell lines; assay type: cell-based; settings: concentrations up to 1 μM
glioma cells = test: Sensitization to irradiation in vitro (clonogenic survival); assay type: cell-based, mouse
[3] = tested on: murine glioma cell invasiveness; test: Murine glioma cell invasiveness in vitro without or with irradiation; assay type: cell-based, mouse; settings: without or with irradiation (2 Gy, 8 Gy)
Text: Next, we evaluated the motogenic activity of HGF/MET in response to irradiation in vitro. Low-dose irradiation (2 Gy) increased invasiveness in SMA-540 and SMA-560 cells whereas high-dose irradiation (8 Gy) reduced invasiveness in SMA-497 and SMA-560 cells.

SMA-560 gliomas [4] = test: Orthotopic syngeneic SMA-560 glioma model in vivo (survival, histology); parameters: species or system mouse
Method: B. Kaplan-Meier survival curve. C. […] Sections were counterstained with hematoxylin (blue).
Sections (8 μm thick) of tumor-bearing cryopreserved brains were prepared. The mean tumor size was determined by the largest tumor area in the horizontal plane on hematoxylin and eosin (H&E)-stained sections by multiplying the longest perpendicular diameters from a low-magnification (2.5×) image. Brain sections were immunostained with Ki-67 antibody (clone SP6, Epitomics, Burlingame, CA), anti-mouse CD31 antibody (clone MEC 13.3, BD Pharmingen, Franklin Lakes, NJ), anti-CD45 antibody (clone 30-F11; BioLegend), anti-CD3 (clone 17A2; BD Biosciences, San Jose, CA) or anti-CD11b (clone M1/70; BD Biosciences) and histofine simple stain mouse max pro anti-rabbit secondary antibody (Nichirei Biosciences, Tokyo, Japan) to determine proliferation. Anti-rat N-Histofine Simple Stain Mouse MAX PO (Nichirei Biosciences) and DAB chromogen were used to stain blood vessels. The percentage of Ki-67-positive tumor nuclei and the mean number of CD31-positive intratumoral vessels per high power field (×40 objective) were calculated using three randomly selected different microscopic fields of each section for three 3 mice per group. Alternatively, DAB-positive signals were quantified using the ImageJ software (https://imagej.nih.gov/) (Crowe and Yue, 2019).
(§1) All in vitro and in vivo experiments reported here were performed in biological replicates, i.e., in independent experiments and with different passage numbers of cell lines. Statistical significance was assessed by two-sided unpaired t-test or two-way ANOVA with Bonferroni post-testing (GraphPad Prism). Tumor size was analyzed using the Mann-Whitney U non-parametric test. Survival was analyzed using a Kaplan-Meier survival plot followed by a log-rank (Mantel-Cox) test. Differences were considered statistically significant when the p value was below 0.05.

mouse cytokines = test: Proteome profiler cytokine array of SMA-560 tumor lysates ex vivo; assay type: in vivo
Method: In A, raw data are expressed as pixel density measured by Image J. In B, fold-changes indicate down-regulation (left) or up-regulation (right) versus control tumors. A difference down or up of 2-fold versus control was used as cut-off to assign a target to any group.
For the simultaneous determination of relative levels of mouse cytokines in vivo, the Mouse XL Cytokine Array Kit from R&D Systems was used (ARY028, Minneapolis, MN). Tissue lysates were prepared by electric homogenizer in ice-cold lysis buffer and supplemented with protease inhibitor cocktail, followed by centrifugation to remove cellular debris; 150 μg protein was used for each tumor sample and nitrocellulose membrane (control, monotherapies, combination therapy). To compare the proportion of protein levels in each tumor specimen, the quantification of pixel density of each spot of the array was performed using Image J (version 1.32j) software (National Institutes of Health, Bethesda, MD, http://rsb.info.nih.gov/ij/).

GL-261 glioma [5] = test: Orthotopic syngeneic GL-261 glioma model in wildtype mice; assay type: in vivo, mouse
Method: (§2) Kaplan-Meier survival curves are shown. B, C. […] B. Kaplan-Meier survival curves were analyzed via log-rank test. C. Mice surviving in (B) were re-challenged after 13 weeks after initial tumor cell injection with GL-261 cell implantation into the contralateral hemisphere. Naïve mice implanted with GL-261 cells were used as controls. Kaplan-Meier survival curves are shown. D, E. GL-261 met knock-out cells were intracranially implanted into wildtype C57/B16 mice (D) or GL-261 wildtype cells were intracranially implanted into C57/B16 Rag1−/− mice (E). […] F. Analysis of median survival between treatment groups.
as §1

SMA-560 gliomas [6] = test: SMA-560 glioma in immunodeficient Rag1−/− mice; assay type: in vivo, mouse; settings: tepotinib 100 mg/kg daily + 10 Gy
GL-261 glioma [7] = test: GL-261 glioma in Rag1−/− mice; assay type: in vivo, mouse; settings: tepotinib + 10 Gy
Method: as §2, §1

[8] = tested on: GL-261 met knock-out cells; test: GL-261 met knock-out glioma in wildtype mice; assay type: in vivo, mouse; settings: MET disrupted in tumor, tepotinib + 10 Gy
Method: as §2
Knockout clones were generated as described (Ran et al., 2013; Machado et al., 2019). Briefly, two MET-specific guide RNAs (5′-[…]-3′ and 5′-[…]-3′) were cloned into pSpCas9(BB)-2A-GFP and lipofectamine (Thermo) was used to co-transfect both plasmids. […]
as §1, with “Differences were considered statistically significant when the p value was below 0.05.” left out

[9] = tested on: ligand-independent Hs746T tumors; settings: before tumor became resistant and progressed; cited from earlier work
[10] = tested on: HGF-dependent U87MG tumors; settings: before tumor became resistant and progressed; cited from earlier work
[11] = combination group (tepotinib + radiotherapy)

onartuzumab: MET antibody
efficacy outcome in glioblastoma (glioblastoma): negative outcomes

AMG-102: HGF antibody
efficacy outcome in glioblastoma (glioblastoma): negative outcomes

CN1CCC(COc2cnc(-c3cccc(Cn4nc(-c5cccc(C#N)c5)ccc4=O)c3)nc2)CC1 [tepotinib, 3-(1-{3-[5-(1-methyl-piperidin-4-ylmethoxy)-pyrimidin-2-yl]-benzyl}-6-oxo-1,6-dihydro-pyridazin-3-yl)-benzonitrile]
acute growth inhibition (mouse glioma cell lines [1]): resistant to inhibitory effects of tepotinib
clonogenicity (mouse glioma cell lines [2]): resistant to inhibitory effects of tepotinib
sensitization to inhibitory effects of irradiation in vitro (glioma cells; concentrations known to inhibit MET phosphorylation (100 nM)): failed to sensitize glioma cells to the inhibitory effects of irradiation
sensitization to irradiation in presence of exogenous HGF (glioma cells; with exogenous HGF (50 ng/ml)): no sensitization to irradiation by tepotinib became apparent
invasiveness [3]: suppressed invasiveness in all cell lines without or with irradiation, except in low dose-irradiated SMA-540 cells
reduction in CD31 immunoreactivity (SMA-560 gliomas [4]; combination arm (tepotinib + radiotherapy)): 2.8 fold
Ki-67-positive cells (SMA-560 gliomas [4]; [11]): strong decrease of Ki-67-positive cells
mice alive and free from tumor at day 80 (SMA-560 gliomas [4]; [11]): three
survival (SMA-560 gliomas [4]; combination with radiotherapy (single dose 12 Gy)): around 60 days
survival (SMA-560 gliomas [4]; monotherapy): around 20 days
reduction in CD31 immunoreactivity (SMA-560 gliomas [4]; monotherapy arm): 1.8 fold
percentage of Ki-67-stained nuclei (SMA-560 gliomas [4]; monotherapy group): remained unaffected
effect on survival (SMA-560 gliomas [4]; tepotinib alone, 100 mg/kg daily): Neither tepotinib alone nor radiotherapy alone had a significant effect on survival
mice alive and free from tumor at day 80 (SMA-560 gliomas [4]; tepotinib group): one
irradiation-induced cytokines (VEGF, ICAM-1, MMP-2/-9, IL-1a, CXCL10 etc.) (mouse cytokines; combination with irradiation): an induction upon irradiation that was attenuated by tepotinib
cytokine levels in tumor tissue lysates (mouse cytokines; tepotinib monotherapy): reduced the levels of some cytokines
long-term survivors (GL-261 glioma [5]; co-treatment group): approximately 50%
survival (GL-261 glioma [5]; combination therapy (tepotinib + 10 Gy), wildtype mice): prominent survival prolongation
outcome of rechallenge of long-term survivors with GL-261 cells (GL-261 glioma [5]; rechallenge at 90 days, followed another 50 days): all 4 animals remained asymptomatic
synergistic effect of combination therapy on survival (SMA-560 gliomas [6]): strongly attenuated
synergy of irradiation with tepotinib (GL-261 glioma [7]): synergy with tepotinib was lost
synergy of irradiation with tepotinib [8]: synergy was also lost
tumor growth inhibition and regression [9]: Tumor growth inhibition and regression of tumors by tepotinib was temporarily observed
tumor growth inhibition and regression [10]: Tumor growth inhibition and regression of tumors by tepotinib was temporarily observed
